According to US11297839B2, “Stable compositions of uncomplexed iodine and methods of use” (ioTech International, Inc., priority 2014, dated 2022):

assay: Compatibility of biocides with 300 ppm molecular iodine base composition; conditions: biocide added at increasing concentrations to 300 ppm molecular iodine base, iodate excess 2; 6 weeks

| Compound | compatibility with molecular iodine (colour, thiosulfate titratable iodine) |
| --- | --- |
| CC(=O)OO [peracetic acid] | did not reduce thiosulfate titratable iodine |
| CCO [ethanol] | did not reduce thiosulfate titratable iodine |
| CCCO [Formulation 1-propanol, 1-propanol] | did not reduce thiosulfate titratable iodine |
| OO [hydrogen peroxide] | did not reduce thiosulfate titratable iodine |
| CCCCCCCC(=O)O [octanoic acid] | did not reduce thiosulfate titratable iodine |
| CC(C)O [Formulation 2-propanol, 2-propanol] | did not reduce thiosulfate titratable iodine |

assay: Compatibility of surface active agents with molecular iodine base composition; type: physicochemical; conditions: 985 micromolar molecular iodine base with n-propanol, peracetic acid, hydrogen peroxide, iodate, citric acid; 37 degrees centigrade 6 weeks
Description: A further objective of this invention was to incorporate surface active agents in the compositions contemplated in this application to enhance the cleaning and wetting properties of said compositions. A series of surface active agents were screened to insure their compatibility with the molecular iodine based composition contemplated in this application. A 985 micromolar concentration of molecular iodine was prepared by dissolving elemental iodine crystals in a sealed glass volumetric flask containing the base composition. […] Samples of the following surface active agents or classes of surface active agents were obtained from various manufacturers and evaluated for compatibility with molecular iodine.

| Compound | compatibility of surface active agent with molecular iodine composition |
| --- | --- |
| CCCCCCCCCCCC(=O)OCC(O)CO (stereo not shown) [dodecanoic acid 2,3-dihydroxypropyl ester] | compatible at all concentrations tested |
| CCCCCCCCC(=O)OCC(O)CO (stereo not shown) [nonanoic acid 2,3-dihydroxypropyl ester] | compatible at all concentrations tested |
| nonylphenoxypolyethyleneoxy ethanol sulfate | compatible at all concentrations tested |
| CCCCCCCC(=O)O [capryllic acid] | compatible at all concentrations tested |
